Patent US20200405868A1, “GEL-FORMING POLYPEPTIDES” (priority 2018, published 2020)
Where a SMILES comes first, the peptide text is derived from it. [ ]: non-standard residue; d: D form. The star is where a group is joined. dPhe(4-Cl) = N[C@H](Cc1ccc(Cl)cc1)C(=O)O; d2Nal = N[C@H](Cc1ccc2ccccc2c1)C(=O)O; Palmitoyl = CCCCCCCCCCCCCCCC(=O)*; dCit = NC(=O)NCCC[C@@H](N)C(=O)O; d3Pal = N[C@H](Cc1cccnc1)C(=O)O

Columns and labels:
[1] = Compound gel-forming ability in water (visual inspection, tube tapping assay, tilted tube assay); format: physicochemical; conditions: for gel formation in aqueous solution, 6% / gel formation in aqueous solution, 11%: Table 3; for gel formation in aqueous solution, 6% / propensity to form gels, chimeric or mutated polypeptides, 6%: 6% w/w; for gel formation in aqueous solution, 11% / propensity to form gels, chimeric or mutated polypeptides, 11%: 11% w/w;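 on all read-outs here: peptides mixed with de-ionized water at about 22-25 °C, judged after 20 min by eye plus tube tapping (10 taps, moves counted) and 90° tilt mobility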
Protocol: Determination of Compound Gel-forming Ability in Water: To determine the solubility of polypeptides at room temperature, 1, 2, 3, 4, 5, 20, or 100 mg of a selected peptide is weighed and deposited into a clear plastic or glass vial and an aliquot of de-ionized water was then added to the vial. The procedure takes place in a room which is maintained at approximately 22-25° C. […] Insoluble peptides sample retained the particles or paste-like characteristics after 20 min of reaction. In addition to visual inspection, we performed a tube tapping assay and a tilted tube assay to differentiate the gelling status of peptide solutions.
To determine the solubility of polypeptides at room temperature, 1, 2, 3, 4, 5, 20, or 100 mg of a selected peptide is weighed and deposited into a clear plastic vial and an aliquot of de-ionized water was then added to the vial. The procedure takes place in a room which is maintained at approximately 22-25° C. Polypeptide sample which is considered soluble dissolves instantly in water and stays as a clear solution without obvious macroscopic change in viscosity at 20 min after mixing with water. […] If macroscopic particles of peptides remain in the solution at 20 min after mixing with water, the peptide is considered insoluble or precipitated at the given concentration. In this case, the quality of peptides is further judged by two other criteria: (1) mobility following a tapping of the tube (tube tapping assay) and (2) mobility flowing tilting the tube by 900 (tilted tube assay). In the first assay, the tube is tapped with the finger for 10 times, and the number of times that the body of the solution changes position is recorded. An aqueous solution such as water will have a score of 9 or 10 in this assay; meaning that the body of the liquid moves every time when one taps the tube. […] Those with moderate viscosity form liquid gel that changes the conformation slowly when the container tube is tapped with a finger or tilted. […] If macroscopic change in the position of the body of gel was observed 5-9 time out of 10 separate tapping tests, the gel is considered a liquid gel. The high viscosity of a liquid gel is further confirmed using the tilted tube assay. […] If the liquid or gel body takes more than 15 seconds to flow to the bottom of the tilted tube, the resulting aqueous mass is considered a liquid gel.
To allow systematic analysis of the gel-forming ability, the assay was first conducted at a peptide concentration of 11% w/w in aqueous solution. The peptides analyzed included functional regulators of cell surface receptors, enzymes, complement factors, antimicrobial peptides, immunomodulators, therapeutic peptides, cell-penetrating peptide, antigens, matrikines, and analogs of CGRP, adrenomedullin and adenomedullin 2 (or intermedin).

[2] = molecular target: T1, GnRH receptor (GnRHR or LHRHR) (Homo sapiens, UniProt P30968); test: GnRHR calcium flux assay (Discoverx), antagonistic; format: cell-based; conditions: for IC50: LHRH-stimulated
T1 sequence (P30968 1-328): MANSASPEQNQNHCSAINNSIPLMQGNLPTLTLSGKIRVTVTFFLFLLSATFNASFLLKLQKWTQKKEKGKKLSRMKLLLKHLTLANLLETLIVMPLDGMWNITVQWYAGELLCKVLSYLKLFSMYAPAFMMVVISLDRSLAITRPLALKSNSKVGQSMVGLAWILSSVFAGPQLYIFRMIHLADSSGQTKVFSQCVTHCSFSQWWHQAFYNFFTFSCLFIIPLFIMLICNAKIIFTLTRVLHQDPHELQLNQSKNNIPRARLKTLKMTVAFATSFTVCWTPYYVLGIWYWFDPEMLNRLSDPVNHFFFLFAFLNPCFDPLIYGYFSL
From the text: To study the bioactivities of conjugated and mutated peptides, we employed in vitro receptor-activation assays with cultured cells expressing recombinant melanocortin receptor 1 (MC1R), melanocortin receptor 4 (MC4R), CRH receptor 2 (CRHR2), PTH receptor 1 (PTHR1), or kappa opioid receptor (OPRK1). The agonistic activities toward MC1R, MC4R, CRHR2, PTHR1, and OPRK1 were assyed with an MC1R cAMP assay, an MC4R cAMP assay, a CRHR2 cAMP assay, a PTHR1 cAMP assay and an OPRK1 cAMP assay from Discoverx Inc. (Fremont, Calif.), respectively. The antagonistic activities toward bradykinin receptor 2 (BDKRB2) and GnRH receptor (GnRHR or LHRHR) were assayed with a BDKRB2 arrestin assay and a GnRHR calcium flux assay from Discoverx, respectively.
For the analysis of calcium flux, cell lines were expanded from freezer stocks and seeded in a total volume of 20 μL into black-walled, clear-bottom, Poly-D-lysine coated 384-well microplates and incubated at 37 C for the appropriate time prior to testing. Assays were performed in 1× Dye Loading Buffer consisting of 1× Dye, 1× Additive A and 2.5 mM Probenecid in HBSS/20 mM Hepes. Cells were loaded with dye prior to testing. Media was aspirated from cells and replaced with 20 μL Dye Loading Buffer. Cells were incubated for 30-60 minutes at 37 C. For agonist determination, cells were incubated with sample to induce response. After dye loading, cells were removed from the incubator and 10 μL HBSS/20 mM Hepes was added. Vehicle was included in the buffer when performing agonist dose curves to define the EC80 for antagonist assays. Cells were incubated for 30 minutes at room temperature in the dark to equilibrate plate temperature. Intermediate dilution of sample stocks was performed to generate 4× sample in assay buffer. Compound agonist activity was measured on a FLIPR Tetra (MDS), and calcium mobilization was monitored for 2 minutes and 10 μL 4× sample in HBSS/20 mM Hepes was added to the cells 5 seconds into the assay.
For antagonist determination, cells were pre-incubated with sample followed by agonist challenge at the EC80 concentration. Intermediate dilution of sample stocks was performed to generate 3× sample in assay buffer. After dye loading, cells were removed from the incubator and 10 μL 3× sample was added. Cells were incubated for 30 minutes at room temperature in the dark to equilibrate plate temperature. Vehicle concentration was 1%. Compound antagonistic activity was measured on a FLIPR Tetra (MDS), and calcium mobilization was monitored for 2 minutes and 10 μL EC80 agonist in HBSS/20 mM Hepes was added to the cells 5 seconds into the assay. The compound activity was analyzed using a CBIS data analysis suite (ChemInnovation, CA), and percentage activity is calculated using the following formula: % Activity=100%×(mean RFU of test sample−mean RFU of vehicle control)/(mean MAX RFU control ligand−mean RFU of vehicle control). For antagonist assays, percentage inhibition is calculated using the following formula: % Inhibition=100%×(1−(mean RFU of test sample−mean RFU of vehicle control)/(mean RFU of EC80 control−mean RFU of vehicle control)).

[3] = molecular target: melanocortin receptor 1 (MC1R) (Homo sapiens, UniProt Q01726); test: MC1R cAMP assay (Discoverx), agonistic; format: cell-based
Protocol: (§1) The agonistic activities toward MC1R, MC4R, CRHR2, PTHR1, and OPRK1 were assyed with an MC1R cAMP assay, an MC4R cAMP assay, a CRHR2 cAMP assay, a PTHR1 cAMP assay and an OPRK1 cAMP assay from Discoverx Inc. (Fremont, Calif.), respectively. The antagonistic activities toward bradykinin receptor 2 (BDKRB2) and GnRH receptor (GnRHR or LHRHR) were assayed with a BDKRB2 arrestin assay and a GnRHR calcium flux assay from Discoverx, respectively.
(§2) For the analysis of Gs-coupled cAMP production, cAMP Hunter cell lines were expanded from freezer stocks, and cells were seeded in a total volume of 20 μL into white walled, 384-well microplates and incubated at 37 C for the appropriate time prior to testing. The cAMP modulation was determined using the DiscoverX HitHunter cAMP XS+ assay. For agonistic activity determination, cells were incubated with sample to induce response. Media was aspirated from cells and replaced with 15 μL 2:1 HBSS/10 mM Hepes: cAMP XS+ Ab reagent. Intermediate dilution of sample stocks was performed to generate 4× sample in assay buffer, and 5 μL of 4× sample was added to cells and incubated at 37 C or room temperature for 30 or 60 minutes. Vehicle concentration was 1%. The compound activity was analyzed using a CBIS data analysis suite (ChemInnovation, CA). For Gs-coupled agonistic assays, percentage activity is calculated using the following formula: % Activity=100%×(mean RLU of test sample−mean RLU of vehicle control)/(mean RLU of MAX control−mean RLU of vehicle control).

CRH receptor 2 (CRHR2) = molecular target: T2, CRH receptor 2 (CRHR2) (Homo sapiens, UniProt Q13324); test: CRHR2 cAMP assay (Discoverx), agonistic; format: cell-based
T2 sequence (Q13324 1-411): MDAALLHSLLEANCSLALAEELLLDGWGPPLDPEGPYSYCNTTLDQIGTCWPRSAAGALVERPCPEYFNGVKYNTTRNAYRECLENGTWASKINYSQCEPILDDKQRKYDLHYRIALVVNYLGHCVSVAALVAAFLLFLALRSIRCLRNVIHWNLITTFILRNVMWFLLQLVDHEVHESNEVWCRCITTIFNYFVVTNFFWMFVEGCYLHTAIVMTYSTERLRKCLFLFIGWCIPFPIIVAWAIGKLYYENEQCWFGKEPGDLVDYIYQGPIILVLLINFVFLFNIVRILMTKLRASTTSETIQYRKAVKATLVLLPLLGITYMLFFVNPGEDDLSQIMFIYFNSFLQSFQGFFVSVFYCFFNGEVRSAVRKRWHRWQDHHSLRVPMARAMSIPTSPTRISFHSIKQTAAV
Protocol: as §1, §2

melanocortin receptor 1 (MC1R), sequence (Q01726 whole entry): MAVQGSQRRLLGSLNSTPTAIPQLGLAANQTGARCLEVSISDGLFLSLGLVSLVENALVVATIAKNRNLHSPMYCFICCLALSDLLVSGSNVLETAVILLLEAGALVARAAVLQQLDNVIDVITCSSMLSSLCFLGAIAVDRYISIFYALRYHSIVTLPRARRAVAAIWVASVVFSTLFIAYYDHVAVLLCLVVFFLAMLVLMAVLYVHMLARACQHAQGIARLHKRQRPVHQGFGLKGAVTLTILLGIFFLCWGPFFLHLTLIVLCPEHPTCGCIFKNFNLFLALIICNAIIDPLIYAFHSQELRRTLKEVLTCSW

With `CCCCCCCCCCCCCCCC(=O)N[C@@H](CCCCN)C(=O)N[C@H](C(=O)N[C@@H](CCC(N)=O)C(=O)N[C@@H](CCCCN)C(=O)N[C@@H](CC(C)C)C(=O)N[C@@H](CO)C(=O)N[C@@H](C)C(=O)N1CCC[C@H]1C(=O)N[C@H](C(=O)N[C@@H](CC(=O)O)C(=O)N1CCC[C@H]1C(=O)N[C@@H](CO)C(=O)N[C@@H](CO)C(=O)N1CCC[C@H]1C(=O)N[C@@H](Cc1c[nH]cn1)C(=O)N[C@@H](CO)C(=O)N[C@@H](Cc1ccc(O)cc1)C(=O)NCCOCCOCC(=O)N[C@H](Cc1ccc2ccccc2c1)C(=O)N[C@H](Cc1ccc(Cl)cc1)C(=O)N[C@H](Cc1cccnc1)C(=O)N[C@@H](CO)C(=O)N[C@@H](Cc1ccc(O)cc1)C(=O)N[C@H](CCCNC(N)=O)C(=O)N[C@@H](CC(C)C)C(=O)N[C@@H](CCCNC(=N)N)C(=O)N1CCC[C@H]1C(=O)N[C@H](C)C(N)=O)C(C)C)C(C)C` [SEQ ID NO:202] the “gel formation at 6% w/w” value ([1]; 6% w/w in water) was “semisolid gel”, the “gel formation at 11% w/w” value ([1]; 11% w/w in water) was “semisolid gel” and the “gel formation in aqueous solution, 6%” value [1] was “SS (SS for semisolid gel)”. For the same compound, the “gel formation in aqueous solution, 11%” value [1] was “SS (SS for semisolid gel)”, the “propensity to form gels, chimeric or mutated polypeptides, 3%” value ([1]; Table 5, 3% w/w) was “AS/IS” and the “propensity to form gels, chimeric or mutated polypeptides, 6%” value ([1]; Table 5) was “SS (An ability to form semisolid gel is represented by an SS)”. The “propensity to form gels, chimeric or mutated polypeptides, 11%” value (from here on “propensity to form gels … 11%”) ([1]; Table 5) was “SS (An ability to form semisolid gel is represented by an SS)” and the “Max Activity % of positive control” value [2] was 135 % of positive control.
With `CCCCCCCCCCCCCCCC(=O)N[C@@H](Cc1c[nH]cn1)C(=O)N[C@@H](CO)C(=O)N[C@@H](Cc1ccc(O)cc1)C(=O)N[C@H](Cc1ccc2ccccc2c1)C(=O)N[C@H](Cc1ccc(Cl)cc1)C(=O)N[C@H](Cc1cccnc1)C(=O)N[C@@H](CO)C(=O)N[C@@H](Cc1ccc(O)cc1)C(=O)N[C@H](CCCNC(N)=O)C(=O)N[C@@H](CC(C)C)C(=O)N[C@@H](CCCNC(=N)N)C(=O)N1CCC[C@H]1C(=O)N[C@H](C)C(N)=O` [SEQ ID NO:203, Pal-HSY-(D-Nal)-(D-Cpa)-(D-Pal)-SY-(D-Cit)-LRP-(D-Ala)-NH2] (Palmitoyl-HSY[d2Nal][dPhe(4-Cl)][d3Pal]SY[dCit]LRP[dA]-NH2) the “Max Activity % of positive control” value [2] was 109 % of positive control and the IC50 [2] was under 510 pM.
With `CCCCCCCCCCCCCCCC(=O)N[C@@H](Cc1c[nH]cn1)C(=O)N[C@@H](CO)C(=O)N[C@@H](Cc1ccc(O)cc1)C(=O)N[C@@H](CO)C(=O)N[C@@H](CCSC)C(=O)N[C@@H](CCC(=O)O)C(=O)N[C@@H](Cc1c[nH]cn1)C(=O)N[C@@H](Cc1ccccc1)C(=O)N[C@@H](CCCNC(=N)N)C(=O)N[C@@H](Cc1c[nH]c2ccccc12)C(=O)NCC(=O)N[C@@H](CCCCN)C(=O)N1CCC[C@H]1C(=O)N[C@H](C(=O)NCC(=O)N[C@@H](CCCCN)C(=O)N[C@@H](CCCCN)C(=O)N[C@@H](CCCNC(=N)N)C(=O)N[C@@H](CCCNC(=N)N)C(=O)N1CCC[C@H]1C(=O)N[C@H](C(=O)N[C@@H](CCCCN)C(=O)N[C@H](C(=O)N[C@@H](Cc1ccc(O)cc1)C(=O)N1CCC[C@H]1C(=O)O)C(C)C)C(C)C)C(C)C` [SEQ ID NO:226] the “gel formation in aqueous solution, 11%” value [1] was “SS (SS for semisolid gel)”, the “propensity to form gels … 11%” value ([1]; Table 5) was “SS (An ability to form semisolid gel is represented by an SS)” and the EC50 [3] was “nanomolar”. The “Max Activity % of positive control” value [3] was 115 % of positive control.
With `CCCCCCCCCCCCCCCC(=O)N[C@@H](CCCCN)C(=O)N[C@@H](CO)C(=O)N[C@@H](Cc1ccc(O)cc1)C(=O)N[C@@H](CO)C(=O)N[C@@H](CC(C)C)C(=O)N[C@@H](CC(=O)O)C(=O)N[C@H](C(=O)N1CCC[C@H]1C(=O)N[C@H](C(=O)N[C@@H](CC(N)=O)C(=O)N[C@H](C(=O)N[C@@H](CCSC)C(=O)N[C@@H](CC(N)=O)C(=O)N[C@@H](CC(C)C)C(=O)N[C@@H](CC(C)C)C(=O)N[C@@H](Cc1ccccc1)C(=O)N[C@@H](CC(N)=O)C(=O)N[C@H](C(=O)N[C@@H](C)C(=O)N[C@@H](CCCCN)C(=O)N[C@@H](C)C(=O)N[C@@H](CCCCN)C(=O)N[C@@H](CC(N)=O)C(=O)N[C@@H](CC(C)C)C(=O)N[C@@H](CCCNC(=N)N)C(=O)N[C@@H](C)C(=O)N[C@@H](CCC(N)=O)C(=O)N[C@@H](C)C(=O)N[C@@H](C)C(=O)N[C@@H](C)C(=O)N[C@@H](CC(N)=O)C(=O)N[C@@H](C)C(=O)N[C@@H](Cc1c[nH]cn1)C(=O)N[C@@H](CC(C)C)C(=O)N[C@@H](CCSC)C(=O)N[C@@H](C)C(=O)N[C@@H](CCC(N)=O)C(=O)N[C@H](C(N)=O)[C@@H](C)CC)[C@@H](C)CC)[C@@H](C)CC)[C@@H](C)O)C(C)C` [SEQ ID NO:231] (Palmitoyl-KSYSLDVPTNIMNLLFNIAKAKNLRAQAAANAHLMAQI-NH2) the “gel formation in aqueous solution, 6%” value [1] was “SS (SS for semisolid gel)”, the “gel formation in aqueous solution, 11%” value [1] was “SS (SS for semisolid gel)” and the “propensity to form gels, chimeric or mutated polypeptides, 6%” value ([1]; Table 5) was “SS (An ability to form semisolid gel is represented by an SS)”. The “propensity to form gels … 11%” value ([1]; Table 5) was “SS (An ability to form semisolid gel is represented by an SS)”, the EC50 (CRH receptor 2 (CRHR2)) was 5700 pM and the “Max Activity % of positive control” value (CRH receptor 2 (CRHR2)) was 78 % of positive control.
With `CC(=O)N[C@H](Cc1ccc2ccccc2c1)C(=O)N[C@H](Cc1ccc(Cl)cc1)C(=O)N[C@H](Cc1cccnc1)C(=O)N[C@@H](CO)C(=O)N[C@@H](Cc1ccc(O)cc1)C(=O)N[C@H](CCCNC(N)=O)C(=O)N[C@@H](CC(C)C)C(=O)N[C@@H](CCCNC(=N)N)C(=O)N1CCC[C@H]1C(=O)N[C@H](C)C(N)=O` [Cetrorelix, reference compound] (Ac-[d2Nal][dPhe(4-Cl)][d3Pal]SY[dCit]LRP[dA]-NH2) the “Max Activity % of positive control” value [2] was 91.4 % of positive control and the IC50 [2] was 80 pM.
